{"source": "paper PMC5218480", "about": "(PLoS ONE, 2017)", "test_system": "MV-4-11 cells", "assay": "Gene expression microarray analysis (Affymetrix PrimeView) and GSEA", "format": "cell-based, human", "design": "RFU PODN (11730768_x_at) / Fold change /veh PODN (11730768_x_at) / RFU LINC00158 (11744669_a_at) / Fold change /veh LINC00158 (11744669_a_at) / RFU DUSP10 (11751237_a_at) / Fold change /veh DUSP10 (11751237_a_at) / RFU ID3 (11757404_x_at) / Fold change /veh ID3 (11757404_x_at) / RFU PLEKHG5 (11737974_s_at) / Fold change /veh PLEKHG5 (11737974_s_at) / RFU LRRC4B (11730491_at) / Fold change /veh LRRC4B (11730491_at) / RFU GIMAP4 (11747438_a_at) / Fold change /veh GIMAP4 (11747438_a_at) / RFU KRT8 (11758183_x_at) / Fold change /veh KRT8 (11758183_x_at) / RFU CNN1 (11734310_a_at) / Fold change /veh CNN1 (11734310_a_at) / RFU VPS37D (11726825_at) / Fold change /veh VPS37D (11726825_at) / RFU C10orf10 (11716522_x_at) / Fold change /veh C10orf10 (11716522_x_at) / RFU KIR2DL2 /// KIR2DL4 /// KIR2DL5A /// KIR2DL5B /// KIR2DS1 /// KIR2DS2 /// KIR2DS3 /// KIR2DS4 /// KIR3DL3 /// KIR3DL3 /// KIR3DS1 (11738374_at) / Fold change /veh KIR2DL2 /// KIR2DL4 /// KIR2DL5A /// KIR2DL5B /// KIR2DS1 /// KIR2DS2 /// KIR2DS3 /// KIR2DS4 /// KIR3DL3 /// KIR3DL3 /// KIR3DS1 (11738374_at) / RFU C1QL1 (11718748_at) / Fold change /veh C1QL1 (11718748_at) / RFU TMPRSS4 (11747572_a_at) / Fold change /veh TMPRSS4 (11747572_a_at) / RFU HAMP (11756126_x_at) / Fold change /veh HAMP (11756126_x_at) / RFU RNFT2 (11725882_a_at) / Fold change /veh RNFT2 (11725882_a_at) / RFU NR4A2 (11747474_a_at) / Fold change /veh NR4A2 (11747474_a_at) / RFU ABCC12 (11746883_a_at) / Fold change /veh ABCC12 (11746883_a_at) / RFU TMEM136 (11760407_x_at) / Fold change /veh TMEM136 (11760407_x_at) / RFU CLDN22 /// WWC2 (11732394_at) / Fold change /veh CLDN22 /// WWC2 (11732394_at) / RFU HLA-DPB1 (11760878_x_at) / Fold change /veh HLA-DPB1 (11760878_x_at) / RFU SPINT1 (11716480_a_at) / Fold change /veh SPINT1 (11716480_a_at) / RFU GAP43 (11754022_s_at) / Fold change /veh GAP43 (11754022_s_at) / RFU A4GNT (11735810_at) / Fold change /veh A4GNT (11735810_at) / RFU PRB3 (11715151_x_at) / Fold change /veh PRB3 (11715151_x_at) / RFU TUBB4B (11761932_at) / Fold change /veh TUBB4B (11761932_at) / RFU CAPN14 (11732068_a_at) / Fold change /veh CAPN14 (11732068_a_at) / RFU TMCC2 (11721928_a_at) / Fold change /veh TMCC2 (11721928_a_at) / RFU IRGQ (11745062_a_at) / Fold change /veh IRGQ (11745062_a_at) / RFU FAM174B (11720279_a_at) / Fold change /veh FAM174B (11720279_a_at) / RFU TMPRSS4 (11748680_a_at) / Fold change /veh TMPRSS4 (11748680_a_at) / RFU FAM212B (11763350_a_at) / Fold change /veh FAM212B (11763350_a_at) / RFU PLEKHG5 (11743358_a_at) / Fold change /veh PLEKHG5 (11743358_a_at) / RFU ZSCAN30 (11745921_a_at) / Fold change /veh ZSCAN30 (11745921_a_at) / RFU CMKLR1 (11741424_a_at) / Fold change /veh CMKLR1 (11741424_a_at) / RFU LOC101060620 /// MAPK8IP1 (11723275_at) / Fold change /veh LOC101060620 /// MAPK8IP1 (11723275_at) / RFU SPTSSB (11747773_x_at) / Fold change /veh SPTSSB (11747773_x_at) / RFU PRSS12 (11739890_at) / Fold change /veh PRSS12 (11739890_at) / RFU BIN1 (11741810_x_at) / Fold change /veh BIN1 (11741810_x_at) / RFU WNT11 (11732464_a_at) / Fold change /veh WNT11 (11732464_a_at) / RFU C10orf10 (11716521_a_at) / Fold change /veh C10orf10 (11716521_a_at) / RFU C5orf56 (11738089_at) / Fold change /veh C5orf56 (11738089_at) / RFU CYB561 (11721691_x_at) / Fold change /veh CYB561 (11721691_x_at) / RFU ANKRD19P (11752326_a_at) / Fold change /veh ANKRD19P (11752326_a_at) / RFU OR2T12 /// OR2T33 /// OR2T8 (11738714_s_at) / Fold change /veh OR2T12 /// OR2T33 /// OR2T8 (11738714_s_at) / RFU VCAN (11748164_a_at) / Fold change /veh VCAN (11748164_a_at) / RFU JSRP1 (11732532_at) / Fold change /veh JSRP1 (11732532_at) / RFU KRTAP10-11 (11738290_x_at) / Fold change /veh KRTAP10-11 (11738290_x_at) / RFU MYO3A (11730013_a_at) / Fold change /veh MYO3A (11730013_a_at) / RFU EBF3 (11725865_a_at) / Fold change /veh EBF3 (11725865_a_at) / RFU CAMK2N1 (11719241_x_at) / Fold change /veh CAMK2N1 (11719241_x_at) / RFU C5orf56 (11738088_a_at) / Fold change /veh C5orf56 (11738088_a_at) / RFU OLFML3 (11715873_a_at) / Fold change /veh OLFML3 (11715873_a_at) / RFU LOC100653217 /// NTM (11731650_a_at) / Fold change /veh LOC100653217 /// NTM (11731650_a_at) / RFU MAPK11 (11762145_a_at) / Fold change /veh MAPK11 (11762145_a_at) / RFU FIZ1 (11724087_x_at) / Fold change /veh FIZ1 (11724087_x_at) / RFU OASL (11726364_x_at) / Fold change /veh OASL (11726364_x_at) / RFU SOX15 (11748057_x_at) / Fold change /veh SOX15 (11748057_x_at) / RFU CD79A (11719716_a_at) / Fold change /veh CD79A (11719716_a_at) / RFU HIST1H1D (11736915_at) / Fold change /veh HIST1H1D (11736915_at) / RFU CASKIN2 (11723855_a_at) / Fold change /veh CASKIN2 (11723855_a_at) / RFU LOC730098 (11760151_x_at) / Fold change /veh LOC730098 (11760151_x_at) / RFU OR4N2 (11742367_at) / Fold change /veh OR4N2 (11742367_at) / RFU PRRT2 (11749266_a_at) / Fold change /veh PRRT2 (11749266_a_at) / RFU SNX32 (11753110_a_at) / Fold change /veh SNX32 (11753110_a_at) / RFU CDHR5 (11726645_a_at) / Fold change /veh CDHR5 (11726645_a_at) / RFU RCAN1 (11760418_a_at) / Fold change /veh RCAN1 (11760418_a_at) / RFU FAM167A (11723789_a_at) / Fold change /veh FAM167A (11723789_a_at) / RFU FAM26E (11764081_at) / Fold change /veh FAM26E (11764081_at) / RFU ISYNA1 (11749810_s_at) / Fold change /veh ISYNA1 (11749810_s_at) / RFU ACY1 (11761880_at) / Fold change /veh ACY1 (11761880_at) / RFU 11764098_at / Fold change /veh 11764098_at / RFU SAMD14 (11745864_x_at) / Fold change /veh SAMD14 (11745864_x_at) / RFU NPB (11741838_a_at) / Fold change /veh NPB (11741838_a_at) / RFU TMPRSS6 (11731388_a_at) / Fold change /veh TMPRSS6 (11731388_a_at) / RFU KRTAP10-2 (11738614_at) / Fold change /veh KRTAP10-2 (11738614_at) / RFU ARHGAP8 /// PRR5-ARHGAP8 (11727945_x_at) / Fold change /veh ARHGAP8 /// PRR5-ARHGAP8 (11727945_x_at) / RFU KRTAP5-7 /// NADSYN1 (11734609_at) / Fold change /veh KRTAP5-7 /// NADSYN1 (11734609_at) / RFU RASL12 (11751679_a_at) / Fold change /veh RASL12 (11751679_a_at) / RFU CDKN2B (11736163_a_at) / Fold change /veh CDKN2B (11736163_a_at) / RFU PRF1 (11729649_at) / Fold change /veh PRF1 (11729649_at) / RFU, ZNF638 /// ZNF638-IT1 / Fold change vs veh, ZNF638 /// ZNF638-IT1 / RFU, PANK3 / Fold change vs veh, PANK3 / RFU, SH3YL1 / Fold change vs veh, SH3YL1 / RFU, ZEB2 / Fold change vs veh, ZEB2 / RFU, NRIP1 / Fold change vs veh, NRIP1 / RFU, PTTG1IP / Fold change vs veh, PTTG1IP / RFU, CAPN2 / Fold change vs veh, CAPN2 / RFU, MED14 / Fold change vs veh, MED14 / RFU, SNORA58 / Fold change vs veh, SNORA58 / RFU, C1orf63 / Fold change vs veh, C1orf63 / RFU, LRRFIP1 / Fold change vs veh, LRRFIP1 / RFU, NDUFAF7 / Fold change vs veh, NDUFAF7 / RFU, SLC12A2 / Fold change vs veh, SLC12A2 / RFU, IBTK / Fold change vs veh, IBTK / RFU, ESF1 / Fold change vs veh, ESF1 / Fold change vs veh, TMEM50B / RFU, TAOK1 / Fold change vs veh, TAOK1 / RFU, ACBD3 / Fold change vs veh, ACBD3 / RFU, TMA16 / Fold change vs veh, TMA16 / RFU, RWDD3 / Fold change vs veh, RWDD3 / RFU, BCAT1 / Fold change vs veh, BCAT1 / RFU, EDEM3 / Fold change vs veh, EDEM3 / RFU, TMEM33 / Fold change vs veh, TMEM33 / RFU, WDR75 / Fold change vs veh, WDR75 / RFU, AHCTF1 / Fold change vs veh, AHCTF1 / RFU, TFRC / Fold change vs veh, TFRC / RFU, ZDHHC17 / Fold change vs veh, ZDHHC17 / RFU, NOM1 / Fold change vs veh, NOM1 / RFU, ARL8B / Fold change vs veh, ARL8B / RFU, ZBTB11 / Fold change vs veh, ZBTB11 / RFU, TAMM41 / Fold change vs veh, TAMM41 / RFU, KIAA1704 /// LOC100996395 / Fold change vs veh, KIAA1704 /// LOC100996395 / RFU, ING1 / Fold change vs veh, ING1 / RFU, TRMT61B / Fold change vs veh, TRMT61B / RFU, FUBP3 / Fold change vs veh, FUBP3 / RFU, TP53 / Fold change vs veh, TP53 / RFU, TNKS2 / Fold change vs veh, TNKS2 / RFU, ZFP14 / Fold change vs veh, ZFP14 / RFU, ACTR2 / Fold change vs veh, ACTR2 / RFU, PPP3R1 / Fold change vs veh, PPP3R1 / RFU, PIK3R1 / Fold change vs veh, PIK3R1 / RFU, HNRNPA1 / Fold change vs veh, HNRNPA1 / RFU, RNF170 / Fold change vs veh, RNF170 / RFU, ZNF28 / Fold change vs veh, ZNF28 / RFU, RNGTT / Fold change vs veh, RNGTT / RFU, OGT / Fold change vs veh, OGT / RFU, BRD1 / Fold change vs veh, BRD1 / RFU, MARS / Fold change vs veh, MARS / RFU, ZNF655 / Fold change vs veh, ZNF655 / RFU, FAHD1 / Fold change vs veh, FAHD1 / RFU, BDP1 / Fold change vs veh, BDP1 / RFU, LRRCC1 / Fold change vs veh, LRRCC1 / RFU, ARID1A / Fold change vs veh, ARID1A / RFU, ZNF146 / Fold change vs veh, ZNF146 / RFU, ZNF330 / Fold change vs veh, ZNF330 / RFU, GPN3 / Fold change vs veh, GPN3 / RFU, C9orf123 / Fold change vs veh, C9orf123 / RFU, N4BP2L2 / Fold change vs veh, N4BP2L2 / RFU, ARFIP1 / Fold change vs veh, ARFIP1 / RFU, FAM179B / Fold change vs veh, FAM179B / RFU, BCL10 / Fold change vs veh, BCL10 / RFU, UHRF1BP1L / Fold change vs veh, UHRF1BP1L / RFU, BET1 / Fold change vs veh, BET1 / RFU, CNOT2 / Fold change vs veh, CNOT2 / RFU, ZNF268 / Fold change vs veh, ZNF268 / Fold change vs veh, ZNF507 / RFU, DGCR2 / Fold change vs veh, DGCR2 / RFU, WDSUB1 / Fold change vs veh, WDSUB1 / Fold change vs veh, HSP90B1 /// MIR3652 / RFU, ADSS / Fold change vs veh, ADSS / RFU, GK / Fold change vs veh, GK / RFU, ZNF148 / Fold change vs veh, ZNF148 / RFU, TAF9 / Fold change vs veh, TAF9 / RFU, SLC1A5 / Fold change vs veh, SLC1A5 / RFU, SLMO2 / Fold change vs veh, SLMO2 / RFU, ABCC4 / Fold change vs veh, ABCC4 / RFU, LOC101060439 /// RAP1B / Fold change vs veh, LOC101060439 /// RAP1B / RFU, RFX7 / Fold change vs veh, RFX7 / RFU, GTPBP10 / Fold change vs veh, GTPBP10 / RFU, CNEP1R1 / Fold change vs veh, CNEP1R1 / RFU, BIVM-ERCC5 /// ERCC5 / Fold change vs veh, BIVM-ERCC5 /// ERCC5 / RFU, ILF3 / Fold change vs veh, ILF3 / RFU 11762660_at / Fold change /veh 11762660_at / RFU VCAN (11757783_s_at) / Fold change /veh VCAN (11757783_s_at) / RFU DDX43 (11728927_at) / Fold change /veh DDX43 (11728927_at) / RFU KRT8 (11758188_x_at) / Fold change /veh KRT8 (11758188_x_at) / RFU NKD1 (11759106_at) / Fold change /veh NKD1 (11759106_at) / RFU SRD5A1 (11742802_a_at) / Fold change /veh SRD5A1 (11742802_a_at) / RFU TPSAB1 /// TPSB2 (11721975_s_at) / Fold change /veh TPSAB1 /// TPSB2 (11721975_s_at) / RFU GSTM3 (11746129_a_at) / Fold change /veh GSTM3 (11746129_a_at) / RFU IL23R (11737362_x_at) / Fold change /veh IL23R (11737362_x_at) / RFU TMEM51 (11727254_a_at) / Fold change /veh TMEM51 (11727254_a_at) / RFU PIWIL2 (11732686_x_at) / Fold change /veh PIWIL2 (11732686_x_at) / RFU ORM1 (11744905_x_at) / Fold change /veh ORM1 (11744905_x_at) / RFU CCDC152 (11743942_at) / Fold change /veh CCDC152 (11743942_at) / RFU ECM1 (11717891_a_at) / Fold change /veh ECM1 (11717891_a_at) / RFU IL23R (11748794_a_at) / Fold change /veh IL23R (11748794_a_at) / RFU TNFAIP8L3 (11732012_x_at) / Fold change /veh TNFAIP8L3 (11732012_x_at) / RFU MBOAT4 (11741988_at) / Fold change /veh MBOAT4 (11741988_at) / RFU 11764193_at / Fold change /veh 11764193_at / RFU TMEM53 (11763286_at) / Fold change /veh TMEM53 (11763286_at) / RFU MAGEB2 (11727129_at) / Fold change /veh MAGEB2 (11727129_at) / RFU TMEM200A (11744735_a_at) / Fold change /veh TMEM200A (11744735_a_at) / RFU CCDC152 (11751479_a_at) / Fold change /veh CCDC152 (11751479_a_at) / RFU FAM211A (11726209_a_at) / Fold change /veh FAM211A (11726209_a_at) / RFU RGS16 (11746705_a_at) / Fold change /veh RGS16 (11746705_a_at) / RFU VCAN (11755009_s_at) / Fold change /veh VCAN (11755009_s_at) / RFU RHOB (11743442_s_at) / Fold change /veh RHOB (11743442_s_at) / RFU RGS16 (11720943_a_at) / Fold change /veh RGS16 (11720943_a_at) / RFU RGS16 (11720944_at) / Fold change /veh RGS16 (11720944_at) / RFU, VPS4B / Fold change vs veh, VPS4B / RFU, CREB1 / Fold change vs veh, CREB1 / RFU, DNAJC13 / Fold change vs veh, DNAJC13 / RFU, GNAQ / Fold change vs veh, GNAQ / RFU, CDK5R1 / Fold change vs veh, CDK5R1 / RFU, ZRANB3 / Fold change vs veh, ZRANB3 / RFU, CUL4A / Fold change vs veh, CUL4A / RFU, CCNY / Fold change vs veh, CCNY / RFU, UFL1 / Fold change vs veh, UFL1 / RFU, COG3 / Fold change vs veh, COG3 / RFU, DIAPH2 / Fold change vs veh, DIAPH2 / RFU, SKA2 / Fold change vs veh, SKA2 / RFU, AFF3 / Fold change vs veh, AFF3 / RFU, LMF1 / Fold change vs veh, LMF1 / RFU, IPO11 / Fold change vs veh, IPO11 / RFU, DFFB / Fold change vs veh, DFFB / RFU, FOXP1 / Fold change vs veh, FOXP1 / RFU, CARD8 / Fold change vs veh, CARD8 / RFU, STRN3 / Fold change vs veh, STRN3 / RFU, ADK / Fold change vs veh, ADK / RFU, RASSF2 / Fold change vs veh, RASSF2 / RFU, WIPF1 / Fold change vs veh, WIPF1 / RFU, LARP1B / Fold change vs veh, LARP1B / RFU, RASA1 / Fold change vs veh, RASA1 / RFU, RB1 / Fold change vs veh, RB1 / RFU, PPFIA1 / Fold change vs veh, PPFIA1 / RFU, MAT2A / Fold change vs veh, MAT2A / RFU, CCT5 / Fold change vs veh, CCT5 / RFU, WDR92 / Fold change vs veh, WDR92 / RFU, CUX1 / Fold change vs veh, CUX1 / RFU, TTC7A / Fold change vs veh, TTC7A / RFU, TMEM135 / Fold change vs veh, TMEM135 / RFU, DEPTOR / Fold change vs veh, DEPTOR / RFU, CPM / Fold change vs veh, CPM / RFU, DNAJB6 / Fold change vs veh, DNAJB6 / RFU, CACNA2D3 / Fold change vs veh, CACNA2D3 / RFU, DTX4 / Fold change vs veh, DTX4 / RFU, TFCP2 / Fold change vs veh, TFCP2 / RFU, GMCL1 /// GMCL1P1 / Fold change vs veh, GMCL1 /// GMCL1P1 / RFU, AEBP2 / Fold change vs veh, AEBP2 / RFU, SNHG1 /// SNORD22 /// SNORD25 /// SNORD26 /// SNORD27 /// SNORD28 /// SNORD29 /// SNORD31 / Fold change vs veh, SNHG1 /// SNORD22 /// SNORD25 /// SNORD26 /// SNORD27 /// SNORD28 /// SNORD29 /// SNORD31 / Fold change (Aza/veh), C12orf56 (ProbeSet 11735607_a_at) / Fold change (ACY-1035/veh), C12orf56 (ProbeSet 11735607_a_at) / Fold change (Aza/veh), FGFR1OP (ProbeSet 11751329_s_at) / Fold change (ACY-1035/veh), FGFR1OP (ProbeSet 11751329_s_at) / Fold change (Aza/veh), VPS36 (ProbeSet 11739960_a_at) / Fold change (ACY-1035/veh), VPS36 (ProbeSet 11739960_a_at) / RFU SYPL1 (11715823_x_at) / Fold change /veh SYPL1 (11715823_x_at) / RFU IGFBP7 (11715501_s_at) / Fold change /veh IGFBP7 (11715501_s_at) / RFU REEP3 (11722064_at) / Fold change /veh REEP3 (11722064_at) / RFU IGLL1 (11728026_x_at) / Fold change /veh IGLL1 (11728026_x_at): dose or concentration left out as unconfirmed", "details": "ProbeSet 11745789_a_at; LIST D", "data": [{"smiles": "Nc1ncn([C@@H]2O[C@H](CO)[C@@H](O)[C@H]2O)c(=O)n1", "note": "[azacitidine]", "values": [{"measurement": "Fold change vs veh, TMEM135", "value": 0.56}]}]}
